Experimental data reported in EP4772514A1, “MACROCYCLIC COMPOUNDS, PREPARATION METHOD THEREFOR, AND USE THEREOF” (Genfleet Therapeutics (Shanghai) Inc., priority 2023, dated 2025).

Columns and labels:
Assay type in all cases: cell-based
[1] = test system: p-ERK; experiment: Cell p-ERK assay (HTRF, Advance ERK phospho-T202/Y204 kit) in NCI-H441 cells; details: Homo sapiens, NCI-H441, 3 h, NCI-H441, human non-small cell lung cancer cell strain, KRAS G12V mutation; 3 h compound incubation
In short: (§1)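 AsPC-1 (KRAS G12D) or NCI-H441 (KRAS G12V) cells seeded overnight, then treated 3 h at 37 °C with compound (0.1% DMSO) in RPMI-1640/10% FBS. Lysates assayed for ERK phospho-T202/Y204 by HTRF; inhibition vs DMSO and blank wells, IC50 from four-parameter fit.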

[2] = test system: p-ERK; experiment: Cell p-ERK assay (HTRF, Advance ERK phospho-T202/Y204 kit) in AsPC-1 cells; details: ASPC1; AsPC-1, human pancreatic cancer cell strain, KRAS G12D mutation; 3 h compound incubation
In short: as §1

[3] = test system: NCI-H441 cells; experiment: 3D cell proliferation assay (CellTiter Glo-3D) in NCI-H441 cells; details: Homo sapiens, NCI-H441, 120 h, NCI-H441, human lung cancer cell strain, KRAS G12V mutation; 3D culture, 2% FBS, 5 days; read-out: H441 AP IC50
In short: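 After a 5-day exposure at 37 °C to 3.16-fold serial dilutions (final DMSO 0.1%) in 2% FBS RPMI-1640, ATP luminescence (CellTiter-Glo 3D) was read. Cells were AsPC-1 (KRAS G12D) or NCI-H441 (KRAS G12V), 800 per well; inhibition used DMSO and medium-only controls, with four-parameter curve fitting giving IC50.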

[4] = test system: AsPC-1 cells; experiment: 3D cell proliferation assay (CellTiter Glo-3D) in AsPC-1 cells; details: ASPC1, 120 h; AsPC-1, human pancreatic cancer cell strain, KRAS G12D mutation; 3D culture, 2% FBS, 5 days; read-out: AsPC-1 AP IC50
Text: MIA PaCa-2 cells were purchased from ATCC, Cat. No. CRL-1420; AsPC-1 cells were purchased from ATCC, Cat. No. CRL-1682; NCI-H441 cells were purchased from ATCC, Cat. No. HTB-174; NCI-H1975 cells were purchased from ATCC, Cat. No. CRL-5908; DMEM medium was purchased from Gibco, Cat. No. 11995-065; RPMI-1640 medium was purchased from Gibco, Cat. No. 11875-093; FBS was purchased from Gibco, Cat. No. 10099-141C; penicillin/streptomycin double-antibiotic solution (PS) was purchased from Gibco, Cat. No. 15140-122; Horse serum was purchased from Gibco, Cat. No. 16050130; trypsin (containing EDTA) was purchased from Gibco, Cat. No. 25200-072; DMSO was purchased from VWRAMRESCO, Cat. No. 0231-500ML; 384-well cell culture plates were purchased from Corning, Cat. No. 3830; white-bottomed, opaque 384-well assay plates were purchased from Corning, Cat. No. 3570; CellTiter Glo-3D kit was purchased from Promega, Cat. No. G9683; cell counter was purchased from CHEMOMETEC, model: NC-200; microplate reader was purchased from PerkinElmer, model: EnVision.
MIA PaCa-2, a human pancreatic cancer cell strain endogenously containing a KRAS^G12Cmutation, was cultured in a complete medium containing DMEM + 10% FBS + 2.5% Horse serum + 1% PS. AsPC-1, a human pancreatic cancer cell strain endogenously containing a KRAS^G12D mutation, was cultured in a complete medium containing RPMI-1640 + 10% FBS + 1% PS. NCI-H441 cells, a human lung cancer cell strain endogenously containing a KRAS^G12V mutation, were cultured in a complete medium containing RPMI-1640 + 10% FBS + 1% PS. NCI-H1975, a KRAS wild-type human lung cancer cell strain whose cell proliferation […], was cultured in a complete medium containing RPMI-1640 + 10% FBS + 1% PS.
The cells were digested with trypsin (containing EDTA), collected in their respective low-serum complete media containing 2% FBS (for MIA Paca-2 cell culture: DMEM + 2% FBS + 0.5% Horse serum + 1% PS), and counted. After the cell density was adjusted as required, MIA PaCa-2 cells (200 cells/well), AsPC-1 cells (800 cells/well), NCI-H441 cells (800 cells/well), or NCI-H1975 cells (400 cells/well) were seeded into a 384-well cell culture plate, with the volume of the medium in each well being 45 µL. The cell culture plate was incubated in an incubator at 37 °C with 5% CO2 overnight. A series of 3.16-fold gradient dilutions of a 1000× compound stock solution were prepared with DMSO, and then diluted 100-fold with the complete medium containing 2% FBS described above to give 10× compound stock solutions. On the day after cell seeding, 5 µL of the 10× compound stock solution was added to each cell culture well. As a result, the final concentration of the compound in the cell culture well became 1×, and the DMSO content in the well was 0.1%. In addition to the compound-treated wells described above, cell-containing DMSO control wells (with 5 µL of the complete medium containing 1% DMSO added to each well) and cell-free medium control wells (containing 50 µL of the complete medium with 2% FBS) were also set. The culture plate was incubated in an incubator at 37 °C with 5% CO2 for another 5 days, and then 30 µL of CellTiter-Glo working solution was added to each well. The mixture was well mixed, incubated for 30 min, left to stand at room temperature for 30 min, and then transferred to a white-bottomed, opaque 384-well assay plate at 40 µL/well. The chemiluminescence values (RLU) were measured using a microplate reader, and the cell proliferation inhibition rate for each well was calculated: IR(%) = (RLUDMSO - RLUcompound)/(RLUDMSO - RLUblank) × 100%, where RLUDMSO is the average RLU signal value from the DMSO control well samples, RLUblank is the average RLU signal value from the medium control well samples, and RLUcompound is the RLU signal value from the compound-treated well samples. […]

Compound | IC50 [1] [nM] | IC50 [2] [nM] | IC50 [3] [nM] | IC50 [4] [nM]
CCn1c(F)c2c(c1-c1cc(C#CCN3CCOCC3)cnc1[C@H](C)OC)CC(C)(C)COC(=O)[C@@H]1CCCN(N1)C(=O)[C@@H](NC(=O)[C@H]1[C@H](C)[C@@H]1C)Cc1nc(cs1)/C=C/2 (atropisomer, axis not shown; (Ra)) [Compound Z229, (1r, 2R, 3S)-N-((4^2Z, 8^3S, 2E,6S)-1^1-ethyl-1^2-fluoro-(Ra)-1^5-(2-((S)-1-methoxyethyl)-5-(3-morpholinoprop-yn-1-yl)pyridin-3-yl)-12,12-dimethyl-7,9-dioxo-8^1,8^2,8^3,8^4,8^5,8^6-hexahydro-1^1H-10-oxa-4(4,2)-thiazola-8(1,3)-pyridazina-1(3,4)-pyrrolacyclotridecaphan-2-en-6-yl)-2,3-dimethylcyclopropane-1-carboxamide] | 0.6 | 1.04 | 0.56 | 0.56
CCn1nc2c(c1-c1cc(C#CCN3CCC(C#N)CC3)cnc1[C@H](C)OC)CC(C)(C)COC(=O)[C@@H]1CCCN(N1)C(=O)[C@@H](NC(=O)[C@H]1[C@H](C)[C@@H]1C)Cc1nc(cs1)/C=C/2 (atropisomer, axis not shown; (Ra)) [Compound Z73, (1r,2R,3S)-N-((4^2Z,8^3S,2E,6S)-(Ra)-1^5-(5-(3-(4-cyanopiperidin-1-yl)prop-1-yn-1-yl)-2-((S)-1-methoxyethyl)pyridin-3-yl)-1^1-ethyl-12,12-dimethyl-7,9-dioxo-8^1,8^2,8^3,8^4,8^5,8^6-hexahydro-1^1H-10-oxa-4(4,2)-thiazola-8(1,3)-pyridazina-1(3,4)-pyrrolacyclotridecaphan-2-en-6-yl)-2,3-dimethylcyclopropane-1-carboxamide] | 0.88 | 1.73 | 0.91 | 1.34
CO[C@@H](C)c1ncc(C#CCN2CCS(=O)(=O)CC2)cc1-c1c2c(nn1C(C)C)/C=C/c1csc(n1)C[C@H](NC(=O)[C@H]1[C@H](C)[C@@H]1C)C(=O)N1CCC[C@H](N1)C(=O)OCC(C)(C)C2 (single isomer, unassigned) [Compound Z15] | 6.74 | 20.3 | 4.31 | 10.6

The next compounds have a lower IC50 [1] than those just listed; values first:

IC50 [1] [nM] | IC50 [2] [nM] | IC50 [3] [nM] | IC50 [4] [nM] | Compound
0.29 | 0.11 | 0.14 | 0.19 | CCn1cc2c(c1-c1cc(C#CCN3CCC(C#N)CC3)cnc1[C@H](C)OC)CC(C)(C)COC(=O)[C@@H]1CCCN(N1)C(=O)[C@@H](NC(=O)[C@H]1[C@@H]3COC[C@@H]31)Cc1nc(cs1)/C=C/2 (atropisomer, axis not shown; (Ra)) [Compound Z50, (1R,5S,6r)-N-((4^2Z,8^3S,2E,6S)-(Ra)-1^5-(5-(3-(4-cyanopiperidin-1-yl)prop-1-yn-1-yl)-2-((S)-1-methoxyethyl)pyridin-3-yl)-1^1-ethyl-12,12-dimethyl-7,9-dioxo-8^1,8^2,8^3,8^4,8^5,8^6-hexahydro-1^1H-10-oxa-4(4,2)-thiazola-8(1,3)-pyridazina-1(3,4)-pyrrolacyclotridecaphan-2-en-6-yl)-3-oxabicyclo[3.1.0]hexane-6-carboxamide]
0.47 | 0.17 | 0.14 | 0.19 | CCn1cc2c(c1-c1cc(C#CCN3CCC(C#N)(CO)CC3)cnc1[C@H](C)OC)CC(C)(C)COC(=O)[C@@H]1CCCN(N1)C(=O)[C@@H](NC(=O)[C@H]1[C@@H]3COC[C@@H]31)Cc1nc(cs1)/C=C/2 (atropisomer, axis not shown; (Ra)) [Compound Z104, (1R,5S,6r)-N-((4^2Z,8^3S,2E,6S)-(Ra)-1^5-(5-(3-(4-cyano-4-(hydroxymethyl)piperidin-1-yl)prop-1-yn-1-yl)-2-((S)-1-methoxyethyl)pyridin-3-yl)-1^1ethyl-12,12-dimethyl-7,9-dioxo-8^1,8^2,8^3,8^4,8^5,8^6-hexahydro-1^1H-10-oxa-4(4,2)-thiazola-8(1,3)-pyridazina-1(3,4)-pyrrolacyclotridecaphan-2-en-6-yl)-3-oxabicyclo[3.1.0]hexane-6-carboxamide]
0.23 | 0.13 | 0.15 | 0.11 | CCn1cc2c(c1-c1cc(C#CCN3CCC(C#N)(CN)CC3)cnc1[C@H](C)OC)CC(C)(C)COC(=O)[C@@H]1CCCN(N1)C(=O)[C@@H](NC(=O)[C@H]1[C@@H]3COC[C@@H]31)Cc1nc(co1)/C=C/2 (atropisomer, axis not shown; (Ra)) [Compound Z89, (1R,5S,6r)-N-((4^2Z,8^3S,2E, 6S)-(Ra)-1^5-(5-(3-(4-(aminomethyl)-4-cyanopiperidin-1-yl)prop-1-yn-1-yl)-2-((S)-1-methoxyethyl)pyridin-3-yl)-1^1-ethyl-12,12-dimethyl-7,9-dioxo-8^1,8^2,8^3,8^4,8^5,8^6-hexahydro-1^1 H-10-oxa-4(4,2)-oxazola-8(1,3)-pyridazina-1(3,4)-pyrrolacyclotridecaphan-2-en-6-yl)-3-oxabicyclo[3.1.0]hexane-6-carboxamide]
0.2 | 0.24 | 0.18 | 0.16 | CCn1c(F)c2c(c1-c1cc(C#CCN3CCS(=O)(=O)CC3)cnc1[C@H](C)OC)CC(C)(C)COC(=O)[C@@H]1CCCN(N1)C(=O)[C@@H](NC(=O)[C@H]1[C@H](C)[C@@H]1C)Cc1nc(cs1)/C=C/2 (atropisomer, axis not shown; (Ra)) [Compound Z80, (1r,2R,3S)-N-((4^2Z,8^3S,2E,6S)-(Ra)-1^5-(5-(3-(1,1-dioxidothiomorpholino)prop-1-yn-1-yl)-2-((S)-1-methoxyethyl)pyridin-3-yl)-1^1-ethyl-1^2-fluoro-12,12-dimethy^l-7,9-dioxo-8^1,8^2,8^3,8^4,8^5,8^6-hexahydro-1^1H-10-oxa-4(4,2)-thiazola-8(1,3)-pyridazina-1(3,4)-pyrrolacyclotridecaphan-2-en-6-yl)-2,3-dimethylcyclopropane-1-carboxamide]
